According to PMC9490316, “Covalent fragment inhibits intramembrane proteolysis” (Frontiers in Molecular Biosciences, 2022):

Target: T1, transmembrane domain of amyloid precursor protein (APPTM) (Homo sapiens, UniProt P05067)
T1 construct: gene APP; APPTM, transmembrane domain of amyloid precursor protein (5,590 Da, 15N labeled, in DPC micelles)
Experiment: 2D 1H-15N TROSY NMR and MALDI-TOF-MS (covalent adducts, up to six additions); the IC50 is from a gel-based assay of APPTM cleavage by PSH
Type: biochemical

T1 sequence (P05067 686-726 limits assumed): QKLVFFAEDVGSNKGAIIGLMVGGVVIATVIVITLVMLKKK

**Q.** Which IC50 does the source give for Oc1ccc(O)c2c1C1CCC2C1 [6H8] here?
**A.** The IC50 was 2 to 4 µM.
